{"source": "patent US10272120B2", "about": "“Synergistic composition comprising propolis and carnosic acid for use in the prevention and treatment of candidiasis” (priority 2015, dated 2019)", "key": {"[1]": {"test_system": "C. albicans strain CAI-4", "experiment": "Viability assay in liquid YPD medium and colony formation on solid YPD", "assay_type": "cell-based, Candida albicans", "conditions": "concentrations of 200 y 2000 μg/ml", "description": "FIG. 1. Viability assay on liquid YPD medium (A) and colony formation on solid YPD medium (B) on C. albicans strain CAI-4 to different concentrations of carnosic acid, propolis 2 and 3. It started from a preinocolum culture incubated overnight at 28° C.; the next day refreshed in YPD medium to a D.O600 nm=0.3. The culture was allowed to grow to D.O600 nm=0.6 at 37° C., moment at which the compounds, object of the study, are added for one hour at the same temperature. Additionally, a positive control of antifungal activity with amphotericin B was included under the same conditions.\n(§1) Assays were carried out in liquid YPD medium (1% yeast extract, 2% peptone and 2% glucose) at 37° C. Initially the C. albicans strain CAI-4 was used, but as it presented growth problems during the calculation of the MIC, it was replaced by its parental (SC5314, wild type), widely used in the laboratory. The procedure consisted of applying different concentrations of carnosic acid and propolis (one hour, unless other times are indicated) on exponential cultures of C. albicans grown in YPD. The percentage of cell viability was determined by counting the number of viable cells in the solid YPD medium after incubation at 37° C. for 24-48 hours (FIG. 1)."}, "[2]": {"test_system": "C. albicans standard strain SC5314", "experiment": "Viability assay in liquid medium and colony formation on solid YPD", "assay_type": "cell-based, Candida albicans", "conditions": "various concentrations, exponential YPD liquid cultures", "excerpt": "FIG. 2. Viability assay in liquid medium of the C. albicans standard strain SC5314 to different concentrations of carnosic acid and propolis 1. As a positive control Amphotericin B was used. Due to the particular behaviour of the CAI-4 strain when carrying out MICs, it was decided to use the wild strain SC5314 ([…] parental), in order to validate the effect of the compounds of study on an international C. albicans reference strain. The assay followed the same procedure described in FIG. 1.\nFIG. 3. Assay of macroscopic colony formation in solid YPD medium. The C. albicans standard strain SC5314 was used to the concentrations of carnosic acid and propolis 1 indicated. As a positive control Amphotericin B was used. For further details of methodology see FIG. 1.\nas §1, with “The procedure consisted of applying different concentrations of carnosic acid and propolis (one hour, unless other times are indicated) on exponential cultures of C. albicans grown in YPD.” left out, “1). […]” for “1).”"}, "[3]": {"test_system": "parental strain SC5314", "experiment": "MIC determination", "assay_type": "cell-based", "conditions": "Candida albicans"}, "[4]": {"test_system": "CAI-4", "experiment": "MIC determination", "assay_type": "cell-based", "conditions": "Candida albicans; strain CAI-4"}, "[5]": {"test_system": "C. albicans yeast (blastoconides) CAI-4", "experiment": "Cell morphology by optical microscopy (Nomarsky)", "assay_type": "cell-based, Candida albicans", "description": "FIG. 4. Inspection of the cell morphology by optical microscopy, using the interference contrast of “Nomarsky” on C. albicans yeast (blastoconides) CAI-4, treated with: propolis 3 (200 μg/ml), carnosic acid (100 μg/ml) and the combination of both compounds.\nAs an essential tool in understanding the effectiveness of these compounds on C. albicans cell viability, detailed studies on the effects of their administration on the cell morphology of this opportunistic pathogen, visualized by optical microscopy, were performed (FIGS. 4, 5 and 6)."}, "[6]": {"test_system": "SC5314 strain", "experiment": "Cell morphology by optical microscopy", "assay_type": "cell-based, Candida albicans", "excerpt": "FIG. 5. Optical micrographs (100×) where it can be seen how the treatment with increasing doses of carnosic acid caused visible alterations in the cellular morphology, resulting in cells with a more swollen and deformed aspect, with increased birefringence and the apparent loss of ability to transition dimorphically to mycelial structures (hyphae).\nFIG. 6. Optical micrographs (40×) taken in order to provide better visual field with higher cell density, using the same cultures as in FIG. 5. The presence of swollen cells is very significant in the image, with a carnosic acid concentration of 100 μg/ml."}, "[7]": {"test_system": "parental strain SC5314", "experiment": "Inhibition kinetics / synergy assay, liquid medium and colony formation on plate", "assay_type": "cell-based, Candida albicans", "conditions": "carnosic acid 50 μg/ml, propolis 3 200 μg/ml", "description": "FIG. 8. (A) Measurement of the kinetic growth in the parental strain SC5314. With regard to previous assays, the following modifications were used: (i) Reduction of the concentration of carnosic acid to 50 μg/ml, maintaining that of the propolis 3 (PP) at (200 μg/ml), in order to better monitor its effect on cell viability. […] (B) Assay of colony formation on plate.\nThen, in strain SC5314, as it is a reference lineage, new experiments simultaneously measuring the kinetics of inhibition of cell viability at sub-inhibitory concentrations of the carnosic acid (up to 50 μg/ml) and propolis 3 (200 μg/ml) were conducted together with the synergy assays between the two. The tested aliquots come from a single initial exponential culture and, therefore, the physiological state of the cells is identical."}, "[8]": {"test_system": "C. albicans strain SC5314", "experiment": "Yeast-hyphae dimorphic transition induced by human serum", "assay_type": "cell-based, Candida albicans", "conditions": "YPD plus human serum at 10%, 37° C., different concentrations", "description": "FIG. 9. Effect of the addition of carnosic acid on the percentage of yeast-hyphae dimorphic transition in C. albicans induced by human serum at 37° C. Exponential cultures of strain SC5314 were centrifuged and resuspended in fresh YPD medium preheated at 37° C. Identical samples were treated with carnosic acid at the indicated concentrations, using an untreated sample and a sample maintained at 28° C. as controls. The percentage of germ tubes emission (first stage of the formation of hyphae) was calculated by direct microscopic count with a hemocytometer.\nFIG. 10. Micrographs illustrating the effect of carnosic acid on the dimorphism of C. albicans. In the control assay with the lowest concentration of carnosic acid, a high percentage of filamentation (grouped hyphae forming a mycelium) which decreased proportionally with increasing dose of the latter, was observed.\nThese assays are also complemented with the evaluation of the influence on the morphology (dimorphism) of C. albicans. In FIGS. 9 and 10, the effect of the carnosic acid on the dimorphic transition of the strain SC5314 of C. albicans was explored, given that the yeast-mycelium dimorphic transition is considered to be a factor of virulence in this opportunistic pathogen. To do this, an “overnight” culture was […] to a low optical density (0.1) and left to grow to 0.3 at 37° C. […]"}}, "data": [{"smiles": "CC(C)c1cc2c(c(O)c1O)[C@@]1(C(=O)O)CCCC(C)(C)[C@@H]1CC2", "note": "[carnosic acid]", "values": [{"measurement": "antifungal effect", "setting": "[1]", "result": "strong antifungal effect"}, {"measurement": "cell viability", "setting": "[2]", "result": "significant decrease in cell viability"}, {"measurement": "MIC", "setting": "[3]", "result": 250, "unit": "µg/mL"}, {"measurement": "MIC", "setting": "[4]", "result": 250, "unit": "µg/mL"}, {"measurement": "effect on cell morphology", "setting": "[5]; more significant after five hours of treatment", "result": "apparent cellular reduction of size (volume)"}, {"measurement": "cell morphology (FIG. 4 legend)", "setting": "[5]; propolis 3 200 μg/ml, carnosic acid 100 μg/ml, and the combination", "result": "significant reduction in cell size"}, {"measurement": "cell morphology", "setting": "[6]; 100 μg/ml of carnosic acid, Nomarsky contrast", "result": "growing swelling"}, {"measurement": "cells seen in micrograph (40×)", "setting": "[6]; 500 μg/ml", "result": "small number of cells"}, {"measurement": "cell morphology", "setting": "[6]; increasing concentration of carnosic acid", "result": "swelling and deformation of the yeast cells"}, {"measurement": "antifungal action considered individually", "setting": "[7]", "result": "strong antifungal action"}, {"measurement": "growth on plate (FIG. 8)", "setting": "[7]; combination read at one hour", "result": "growth is visible"}, {"measurement": "filamentation (yeast-mycelium dimorphic transition)", "setting": "[8]", "result": "reduced the filamentation of C. albicans in a dose-dependent way"}]}]}
